Broadly, the melting point is the temperature of the solid-liquid transition.

In turn, `NS(=O)(=O)c1cc(C(=O)O)cc([N+](=O)[O-])c1OCC(F)(F)F` returned a melting point of 195 to 197 °C.

Regarding `COc1cc(OC)c(C(=O)C=Cc2ccc3c(c2)OCO3)c(OP(=O)(O)O)c1`, the melting point was in the range of 79 to 80 °C.

The molecule `CCOc1cc(C(=O)O)cc(N)c1-c1ccccc1` returned a melting point of 138 °C.

Turning to `COCCO[C@H]1c2ccn3c(C)c(C)nc3c2N[C@H](c2ccccc2)[C@H]1OC(=O)c1ccccc1`, the melting point is 78 to 80 °C.

With `CC(=O)COc1cc(C)c(Br)c(C)c1Cc1ccc(C(C)C)cc1`, the melting point is 93 to 94 °C.

Turning to `N#CNC=Nc1ccc(-c2ccccn2)cc1`, the melting point lay within 150 to 151 °C.

`CCOC(=O)CC[C@H](NC(=O)c1ccc2c(c1)CCN2)C(=O)OCC`: the melting point fell in the range of 96 to 97 °C.

As to `CCCc1c(OCCCCCCCC(=O)OC)ccc(C(C)=O)c1O`, the melting point is 39 to 41 °C.

As to `O=C(c1ccccc1)c1ccccc1NC(=O)C(Cl)Cl`, the melting point is 112 to 114 °C.

`c1ccc(-c2[nH]c3ccccc3c2C2CCNCC2)cc1`: the melting point is 187 to 188 °C.

Molecule `COc1ccc(Br)c(C(=O)N2CCN(S(=O)(=O)c3c(F)cccc3F)CC2)c1` came in with a melting point of 154 °C.

As to `COC(=O)CCc1cnoc1-c1ccc(Br)cc1`, the melting point is 58 to 59 °C.

In turn, `CC(C)C12OC1C1OC13C1(C)CCC4=C(COC4=O)C1CC1OC13C2O` (centres undefined) gave a melting point of 226 to 228 °C.

For the molecule `CCCCN(CCCC)C(=O)CC(C)Nc1c(C#N)cnn1-c1ccc(Cl)c(Cl)c1Cl` (centres undefined), the melting point was in the range of 101 to 103 °C.

`CS(=O)c1ccc(-c2nn(Cc3ccccc3)c(=O)cc2-c2ccc(F)cc2)cc1` (centres undefined): the melting point is 198 °C.

As for `Cn1cnc(=O)c(-c2cccc(C(F)(F)F)c2)c1`, the melting point is 155 to 156 °C.

In turn, `CN1CCN(Cc2cccc(-c3cc4c(Nc5cccc6[nH]ccc56)c(C#N)cnc4s3)c2)CC1` had a melting point of over 245 °C.

As for `COc1cccc2c1C=C(C(=O)O)C(CC(F)(F)F)O2` (centres undefined), the melting point fell in the range of 204 to 207 °C.

In the case of `N#CC1(Sc2ccccc2)Cc2cc3c(cc21)N(C(=O)Nc1cccnc1)CC3` (centres undefined), the melting point lay in the range of 110 to 113 °C.

As for `Cc1ccc2nc(C(O)[C@H](C)NC(=O)OCc3ccccc3)oc2c1` (some centres undefined), the melting point is 108 to 109 °C.

`CCOc1ccc([N+](=O)[O-])c(NC2CCCCCC2)c1` gave a melting point of 83 °C.

Consider `Cn1c(C(F)(F)F)cc(=O)n(-c2cc(OC3CC=CNC3=O)c(Cl)cc2F)c1=O` (centres undefined), for which the melting point amounted to 91 °C.

As for `CCCCN1C(=O)NC(CC(=O)O)C1=O` (centres undefined), the melting point is 132 °C.

The molecule `O=C1Cc2cc(NC(=O)C(=O)N3CCC(Cc4cccc(F)c4)CC3)ccc2N1` came in with a melting point of 182 to 184 °C.

As for `COC(=O)[C@H](CSCc1ccccc1)NC(=O)Nc1n[nH]c(=S)s1`, the melting point is 169 to 172 °C.

For the molecule `CCCCCCCN(CCCCCSc1nc2ccc([N+](=O)[O-])cc2[nH]1)C(=O)Nc1ccc(F)cc1F`, the melting point was in the range of 120 to 122 °C.

As for `CC(=O)NC[C@H]1CN(c2ccc(C3=CCN(C=O)CC3)c(F)c2)C(=O)O1`, the melting point lay in the range of 148 to 151 °C.

Turning to `Cc1ccc(S(=O)(=O)N[C@@H](C)C(=O)O)cc1`, the melting point lay within 134 to 135 °C.

Regarding `CCCc1cc(-c2cccs2)n[nH]c1=O`, the melting point is 171 to 174 °C.

`O=C(Nc1ccc2nc(CN3CCCC3)ccc2c1)N1CCC(c2ccc(F)cc2)CC1` displayed a melting point of 206 to 207 °C.

The molecule `C=CCc1cc2c(cc1O)CC(CCc1ccccc1)O2` (centres undefined) gave a melting point of 79 to 80 °C.

As to `COc1cc2c(Nc3cc(OC)c(OC)c(OC)c3)c(C#N)cnc2cc1/C=C/CCN1CCN(C)CC1`, the melting point was in the range of 122 to 124 °C.

For the molecule `N#CCN1C(=O)N(c2ccc(C#N)c(C(F)(F)F)c2)C(=O)C1(CO)CO`, the melting point lay in the range of 157 to 158 °C.

In turn, `CSc1nc(NCCC(C)C)c2ccnc-2[nH]1` displayed a melting point of 157 to 158 °C.

With `O=S(=O)(NCC(F)(F)F)c1ccc(Nc2nc(OCC3CCCCC3)c3nc[nH]c3n2)cc1`, the melting point lay within 223 to 224 °C.

The molecule `Cc1ccc(C2C(=O)N(c3ccccc3)N(c3ccccc3)C2=O)cc1` registered a melting point of 184 to 185 °C.

In turn, `CCc1cc2ccccc2c(=O)o1` came in with a melting point of 69 °C.

`O=C(Nc1ccc2nc(CN3CCN=C3c3ccccc3)ccc2c1)c1ccc(-c2ccc(F)cc2)cc1` showed a melting point of 209 to 210 °C.

The molecule `CC1=C(C)C(=O)N(CCN(C)C)C1=O` displayed a melting point of 9 °C.

As to `CC(C)Cc1cc(OCc2ccccc2)c2c(c1)OC(C)(C)CC2=O`, the melting point fell in the range of 77.5 to 78 °C.

With `OCc1cc2ccc3ccc4ccccc4c3c2o1`, the melting point lay within 125 to 126 °C.

In turn, `Cc1csc2c1c(N1CCN(C(=O)c3cccs3)CC1)c(C#N)c(=O)n2Cc1ccccc1` had a melting point of 223 °C.

In turn, `Cn1cc(CCl)c(=O)c2ccc(F)cc21` came in with a melting point of 169 to 171 °C.

Molecule `CCOC(=O)c1ccc(C(C(N)=O)C(CCc2ccccc2)c2ccccc2N2CCCCC2)cc1` (centres undefined) showed a melting point of 118 to 119 °C.

`CCOC(=O)c1cnn2c(-c3cccnc3)ccnc12`: the melting point lay within 170 to 171 °C.

`COc1cncc(OC)c1CCCO` gave a melting point of 88 to 89 °C.

Molecule `CNC(=O)Cc1cccc2c(=O)cc(C3=CCCCC3)oc12` yielded a melting point of 213 to 214 °C.

`ClC(=NNc1ccc(Br)cc1)c1ccc(Cl)cc1` registered a melting point of 142 to 144 °C.

In turn, `O=Cc1ccc2c(c1)C1(c3ccccc3-2)c2ccccc2-c2ccc(CO)cc21` (centres undefined) displayed a melting point of 262 to 263 °C.

Molecule `Cc1cc2c(cc1Cl)N(C(=O)CN1CCN(C)CC1)c1ccccc1N(C)S2(=O)=O` returned a melting point of 156 to 158 °C.

`Oc1ccc2c(c1)Sc1ccccc1CN2` showed a melting point of 172 to 174 °C.

`CCOC(=O)CC1CCc2cncn2C1c1ccc(C#N)cc1` (centres undefined) yielded a melting point of 126 to 127 °C.

In the case of `COC(=O)[C@H](O)[C@@H](O)C(C)C`, the melting point lay in the range of 32 to 34 °C.

`Cc1ccccc1-c1c(CNC(=O)Nc2ccc(F)cc2F)oc2ccc(Cl)cc12` displayed a melting point of 178 to 180 °C.

Take `COc1cc(C(C)C)c2c(c1)S(=O)(=O)N(COc1cc(=O)n3c(n1)CCCC3)C2=O`: the melting point is 184 to 186 °C.

Consider `O=P(O)(O)C(O)(Cc1c[nH]cn1)P(=O)(O)O`, for which the melting point is over 290 °C.

Take `O=C(NCC12CC3CC(CC(C3)C1)C2)c1cc(CCCNCCCO)cnc1Cl`: the melting point lay within 105 to 107 °C.

Regarding `CSCCn1cc(Cl)nc(N2CCc3cc(Cl)cc(Cl)c32)c1=O`, the melting point was in the range of 127 to 128 °C.

In the case of `N#CN1c2ccccc2CC(Cl)c2ccccc21` (centres undefined), the melting point lay in the range of 139 to 140 °C.

Take `CC(C)(C)C(O)(C=Cc1ccc(Cl)cc1)Cn1ccnc1` (centres undefined): the melting point lay within 139 to 141 °C.

For `CS(=O)(=O)Nc1ccc2c(c1)S(=O)(=O)NC(C1CCCCC1)N2` (centres undefined), the melting point lay in the range of 255 to 258 °C.

The molecule `Cn1c(C(O)(C(F)(F)F)C(F)(F)F)cc(-c2ccc(F)cc2)c1-c1ccc(F)cc1` had a melting point of 130 to 131 °C.

As for `CCS(=O)(=O)N(c1cc(-c2ncnc(C(F)(F)F)c2Cl)c(F)cc1C#N)S(=O)(=O)CC`, the melting point is 191 to 194 °C.

In turn, `CC(Oc1ccc(Oc2ccc(Cl)cc2)cc1)C(=O)N1CCCO1` (centres undefined) yielded a melting point of 98 to 100 °C.

`Cc1c(-c2ccc(Cl)cc2Cl)nn(C)c1S(C)(=O)=O` registered a melting point of 110 to 112 °C.

In turn, `COc1ccccc1-n1c(-c2sc(Nc3ccc(Cl)cc3)nc2C)nc2ccccc2c1=O` yielded a melting point of 225 to 226 °C.

Molecule `COc1cc2c(cc1OC)CN(CCCOc1ccc(N)cc1)CC2` had a melting point of 100 °C.

For `CON(C(=O)Cc1nc2ccc(Cl)cc2o1)c1ccccc1`, the melting point was determined as 139 °C.

`CC(=O)OC1CSC(Oc2cncc(S(=O)(=O)c3ccc(F)cc3)c2)C(OC(C)=O)C1OC(C)=O` (centres undefined): the melting point stood at 128 °C.

Consider `CCCC(CCC)NC(=O)Nc1ccc(Cl)cc1`, for which the melting point lay within 135 to 136 °C.

`Cc1cc(C)c(S(=O)(=O)OCCCCOS(=O)(=O)c2c(C)cc(C)cc2C)c(C)c1` yielded a melting point of 109 °C.

Molecule `CC(=C1SC(=O)NC1=O)c1ccc(OCCOc2c(-c3ccc(F)c(F)c3)n(C)c3cc(Cl)ccc3c2=O)cc1` showed a melting point of 296 to 298 °C.

In the case of `CCCCc1ccc(CN(CCC(C)(C)C)C(=O)Nc2c(C)cc(Cl)cc2C)cc1`, the melting point was 138 to 139 °C.

For the molecule `COc1ccc(O)c(C(=O)Nc2ccccc2C(=O)NCCCC(=O)O)c1`, the melting point fell in the range of 191 to 193 °C.

`Cc1cccc(C(CNc2ncnc3c2ncn3C2OC(CO)C(O)C2O)c2ccccc2)c1` (centres undefined): the melting point was in the range of 92 to 105 °C.

On to `CCOC(NC(=O)c1snc(Cl)c1Cl)C(F)(F)F` (centres undefined), for which the melting point lay in the range of 99 to 101 °C.

`COc1ccnc(CCc2nc3cc(-c4ccc(NC(C)=O)cc4)cnc3[nH]2)c1` showed a melting point of 220 to 221 °C.

In turn, `CCCCOc1c(CNC(=O)OC(C)(C)C)n(CC(C)C)c(=O)c2ccc(C(N)=NO)cc12` gave a melting point of 209 to 210 °C.

Molecule `CCCCCCOc1ccc2cc(OCCCCCC)ccc2c1` gave a melting point of 78 to 79 °C.

Turning to `CCCCNCc1cccc(OCCCNc2nc(N)nn2C)c1`, the melting point lay in the range of 99.5 to 101 °C.

Regarding `CNC(=O)c1ccc(C=CC(=O)Nc2cccc(-c3ccc(C)c(CO)c3C)c2)cc1`, the melting point fell in the range of 272 to 277 °C.

Take `CCOC(=O)/C=C/c1ccc(NC(=O)c2csc(NC(=O)NCc3ccccc3)n2)cc1`: the melting point is 207 °C.

The molecule `CCCCc1nc(SCCCCCC(=O)O)c(C(=O)O)n1Cc1cc2c(cc1Cl)OCO2` registered a melting point of 128 °C.

With `Cc1cc(C=CC#N)cc(C(=O)c2c(C(C)C)c(=O)[nH]c(=O)n2CC2CC2)c1`, the melting point was 225 to 226 °C.

Take `COCOc1nn(-c2ccccc2)cc1/C=C/c1nc(N2CCOCC2)sc1C`: the melting point was in the range of 162 to 164 °C.

The molecule `CN(CCOc1ccc(C=O)cc1)c1nc2ccccc2o1` yielded a melting point of 97 to 98 °C.

`CC(C)COc1c(-c2ccc(S(N)(=O)=O)cc2)cnn(CC(F)(F)F)c1=O` had a melting point of 170 to 172 °C.

As for `CCCC1CCC(O)CC1` (centres undefined), the melting point came out at 109 °C.

For `CC(C)(C)C1=C(c2cc(O)c3nc(-c4ccccc4)oc3c2)OCC1(C)C`, the melting point was in the range of 160 to 161 °C.

For the origin of these results see a melting point compilation (Tetko et al.; mined from patent text by program, amines drawn as free bases though some values may be those of a salt).
